Like-named read-outs stand apart in the source and are kept apart here.
Key:
[1] = biological target: T1, PRS (prolyl-tRNA synthetase) (Homo sapiens, UniProt P07814); experiment: In vitro PRS enzyme activity inhibition experiment ([3H]proline, liquid scintillation); type: biochemical
T1 construct: the portion corresponding to PRS in cDNA of EPRS was subcloned; made in house
T1 sequence (P07814 1007-1512 limits assumed): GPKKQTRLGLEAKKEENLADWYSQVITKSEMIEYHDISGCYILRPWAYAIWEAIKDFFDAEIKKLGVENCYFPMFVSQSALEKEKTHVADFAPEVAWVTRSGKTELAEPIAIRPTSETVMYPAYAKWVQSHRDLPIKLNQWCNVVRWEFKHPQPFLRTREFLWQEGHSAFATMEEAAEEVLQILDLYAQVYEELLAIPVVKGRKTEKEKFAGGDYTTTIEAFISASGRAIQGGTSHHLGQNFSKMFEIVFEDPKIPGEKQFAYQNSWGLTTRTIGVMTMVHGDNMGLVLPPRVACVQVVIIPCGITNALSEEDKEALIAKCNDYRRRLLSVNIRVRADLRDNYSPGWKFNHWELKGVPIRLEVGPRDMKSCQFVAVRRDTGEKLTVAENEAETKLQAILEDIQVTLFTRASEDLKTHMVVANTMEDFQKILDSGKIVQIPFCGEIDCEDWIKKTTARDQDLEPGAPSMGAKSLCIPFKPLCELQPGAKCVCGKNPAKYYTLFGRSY
Procedure, shortened: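 Purified human PRS domain subcloned from EPRS cDNA, reacted at 37 °C for 5–10 min in 20 mM KPO4 pH 7.4, 6 mM MgAc, 5 mM ATP, tRNA, 0.5 mM DTT and [3H]proline. Compounds tested at 1 μM. Aminoacylation read on TCA-treated filter paper by liquid scintillation, giving % inhibition or IC50.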

[2] = system: NCI-H460 cells; experiment: Cancer cell growth inhibition experiment (MTT assay); type: cell-based; conditions: Homo sapiens; NCI-H460 lung cancer cell line; 48 hours treatment; MTT cell viability
Protocol: NCI-H460 cells, lung cancer cell lines, were cultured in 5% CO2, 37° C. incubator using a flask for 75 cm^2 tissue culture. 96-well plates were used for the evaluation. These were prepared by differently applying at concentrations in the range of 6,000 to 12,000 cells/well according to the growth rate of the cell lines. The medium containing 5% FBS were dispensed in 200 μL/well and used. The medium were cultured for 24 hours. After confirming the cell status and dispensing form of a 96-well plate under a microscope, they were used for subsequent experiments. The compounds were evaluated at concentrations of 100, 30, 10, 3, 1, 0.3, 0.03, 0.01 μM. After removing the existing medium, the compounds with various concentrations were treated in an amount of 200 μL/well. The compounds-treated plates were further cultured for 48 hours, and the cell viabilities were measured by MTT assay to calculate IC50 values.
% Inhibition and IC50 values of the respective compounds were calculated and analyzed using Sigma Plot 8.0. The case where the derived IC50 is 5 μM or less is represented by “A”, the case where the IC50 is 5 to 30 μM is represented by “B”, and the case where the IC50 is 30 μM or higher is represented by “C”.

[3] = purified PRS protein subcloned from EPRS cDNA, 37° C., 5 to 10 minutes, read-out: PRS IC50

SMILES: OC(C[C@H]1NCCC[C@@H]1O)Cn1cnc2c(Cl)c(Br)ccc21 (stereo partly drawn) [Example 71, (2R,3S)-2-(3-(5-bromo-4-chloro-1H-benzo[d]imidazol-1-yl)-2-hydroxypropyl)piperidin-3-ol]
- IC50 [1, 3]: < 100 nM
- IC50 [2]: 5000 to 30000 nM

SMILES: Cc1c(Br)cnc2c1ncn2CC(O)C[C@H]1NCCC[C@@H]1O (stereo partly drawn) [Example 78, (2R,3S)-2-(3-(6-bromo-7-methyl-3H-imidazo[4,5-b]pyridin-3-yl)-2-hydroxypropyl)piperidin-3-ol]
- IC50 [1, 3]: < 100 nM
- IC50 [2]: ≥ 30000 nM

SMILES: CC(O)(C[C@H]1NCCC[C@@H]1O)Cn1cnc2ccccc21 (stereo partly drawn) [Example 80, (2R,3S)-2-(3-(1H-benzo[d]imidazol-1-yl)-2-hydroxy-2-methylpropyl)piperidin-3-ol]
- IC50 [1, 3]: > 500 nM
- IC50 [2]: ≥ 30000 nM

SMILES: O[C@H]1CCCN[C@@H]1CC(F)Cn1cnc2cc(Cl)c(Cl)cc21 (stereo partly drawn) [Example 81, (2R,3S)-2-(3-(5,6-dichloro-1H-benzo[d]imidazol-1-yl)-2-fluoropropyl)piperidin-3-ol]
- IC50 [1, 3]: > 500 nM
- IC50 [2]: ≥ 30000 nM

SMILES: O[C@H]1CCCN[C@@H]1CC(F)(F)Cn1cnc2cc(Cl)c(Cl)cc21 [Example 82, (2R,3S)-2-(3-(5,6-dichloro-1H-benzo[d]imidazol-1-yl)-2,2-difluoropropyl)piperidin-3-ol]
- IC50 [1, 3]: > 500 nM
- IC50 [2]: ≥ 30000 nM

SMILES: COC(C[C@H]1NCCC[C@@H]1O)Cn1cnc2cc(Cl)c(Cl)cc21 (stereo partly drawn) [Example 83, (2R,3S)-2-(3-(5,6-dichloro-1H-benzo[d]imidazol-1-yl)-2-methoxypropyl)piperidin-3-ol]
- IC50 [1, 3]: > 500 nM
- IC50 [2]: ≥ 30000 nM

SMILES: CC(O)(C[C@H]1NCCC[C@@H]1O)Cn1cnc2cc(Cl)c(Cl)cc21 (stereo partly drawn) [Example 84, (2R,3S)-2-(3-(5,6-dichloro-1H-benzo[d]imidazol-1-yl)-2-hydroxy-2-methylpropyl)piperidin-3-ol]
- IC50 [1, 3]: > 500 nM
- IC50 [2]: ≥ 30000 nM

SMILES: O=C(C[C@H]1NCCC[C@@H]1O)Cn1c(CO)nc2cc(Cl)c(Cl)cc21 [Example 87, 1-(5,6-dichloro-2-(hydroxymethyl)-1H-benzo[d]imidazol-1-yl)-3-((2R,3S)-3-hydroxypiperidin-2-yl)propan-2-one]
- IC50 [1, 3]: < 100 nM
- IC50 [2]: ≤ 5000 nM

SMILES: OCc1nc2cc(Cl)c(Cl)cc2n1CC(O)C[C@H]1NCCC[C@@H]1O (stereo partly drawn) [Example 88, (2R,3S)-2-(3-(5,6-dichloro-2-(hydroxymethyl)-1H-benzo[d]imidazol-1-yl)-2-hydroxypropyl)piperidin-3-ol]
- IC50 [1, 3]: 100 to 500 nM
- IC50 [2]: ≥ 30000 nM

SMILES: Cc1c(Br)ccc2c1ncn2CC(O)C[C@H]1NCCC[C@@H]1O (stereo partly drawn) [Example 89, (2R,3S)-2-(3-(5-bromo-4-methyl-1H-benzo[d]imidazol-1-yl)-2-hydroxypropyl)piperidin-3-ol]
- IC50 [1, 3]: < 100 nM
- IC50 [2]: ≥ 30000 nM

SMILES: O=C(C[C@@H]1CCCN1)Cn1cnc2cc(Cl)c(Cl)cc21 [Example 90, (S)-1-(5,6-dichloro-1H-benzo[d]imidazol-1-yl)-3-(pyrrolidin-2-yl)propan-2-one]
- IC50 [1, 3]: > 500 nM
- IC50 [2]: ≥ 30000 nM

SMILES: O=C(C[C@H]1NCCC[C@@H]1O)Cn1ccc2ccc(Br)nc21 [Example 92, 1-(6-bromo-1H-pyrrolo[2,3-b]pyridin-1-yl)-3-((2R,3S)-3-hydroxypiperidin-2-yl)propan-2-one]
- IC50 [1, 3]: > 500 nM
- IC50 [2]: ≥ 30000 nM

SMILES: O=C(C[C@H]1NCCC[C@@H]1O)Cn1ccc2ccnc(Cl)c21 [Example 93, 1-(7-chloro-1H-pyrrolo[2,3-c]pyridin-1-yl)-3-((2R,3S)-3-hydroxypiperidin-2-yl)propan-2-one]
- IC50 [1, 3]: 100 to 500 nM
- IC50 [2]: ≥ 30000 nM

SMILES: O=C(C[C@H]1NCCC[C@@H]1O)Cn1ccc2ncc(Br)cc21 [Example 94, 1-(6-bromo-1H-pyrrolo[3,2-b]pyridin-1-yl)-3-((2R,3S)-3-hydroxypiperidin-2-yl)propan-2-one]
- IC50 [1, 3]: > 500 nM
- IC50 [2]: ≥ 30000 nM

SMILES: Cc1c(C#N)cnc2c1ccn2CC(=O)C[C@H]1NCCC[C@@H]1O [Example 95, 1-(3-((2R,3S)-3-hydroxypiperidin-2-yl)-2-oxopropyl)-4-methyl-1H-pyrrolo[2,3-b]pyridin-5-carbonitrile]
- IC50 [1]: > 500 nM
- IC50 [2]: ≥ 30000 nM

SMILES: O=C(C[C@H]1NCCC[C@@H]1O)Cn1nnc2cc(Cl)ccc21 [Example 99, 1-(5-chloro-1H-benzo[d][1,2,3]triazol-1-yl)-3-((2R,3S)-3-hydroxypiperidin-2-yl)propan-2-one]
- IC50 [1, 3]: 100 to 500 nM
- IC50 [2]: ≥ 30000 nM

SMILES: O=C(C[C@H]1NCCC[C@@H]1O)Cn1nnc2ccc(Cl)cc21 [Example 100, 1-(6-chloro-1H-benzo[d][1,2,3]triazol-1-yl)-3-((2R,3S)-3-hydroxypiperidin-2-yl)propan-2-one]
- IC50 [1, 3]: > 500 nM
- IC50 [2]: ≥ 30000 nM

From US10081634B2, “Heterocyclic compound” (Daewoong Pharmaceutical Co., Ltd., priority 2014, dated 2018)
